Patent US20230014181A1, “CULTURE SYSTEM AND METHODS FOR IMPROVED MODELING OF NEUROLOGICAL CONDITIONS” (Genentech, Inc., priority 2021, published 2023)
Where two headings read alike, the source gives them in different places. Where a SMILES comes first, the peptide text is derived from it. The star is where a group is joined. Cbz = O=C(OCc1ccccc1)*

Key:
[1] = test system: human iPSC neurons, astrocytes and microglia treated with 5 μM sAβ42s; experiment: Focused small molecule screen, triple culture (neuron, astrocyte, microglia), rescue from sAβ42s toxicity; format: cell-based; settings: for percent rescue from sAβ42s toxicity at 50 µM / percent rescue from sAβ42s toxicity at 12.5 µM: Homo sapiens, iPSC
Method: (§1) FIGS. 11A-11D show synapse % rescue versus MAP2% rescue (FIGS. 11A-11B) and beta III tubulin % rescue versus MAP2% rescue (FIGS. 11C-11D), in neurons and astrocytes (FIGS. 11A and 11C) or neurons, astrocytes, and microglia (FIGS. 11B and 11D) treated with 5 μM sAβ42s and small molecules from a focused screen of known neuroprotective agents at multiple concentrations (50 μM, 25 μM, 12.5 μM and 6.25 μM (double culture), 50 μM, 12.5 μM, 3.1 μM and 0.78 μM (triple culture). Small molecules that prevented toxicity in dendrites (MAP2), synapses (Synapsin 1/2), cell count (CUX2), or axons ([…]) at or above 30% were considered hits (red dotted line).
Frozen cells were thawed and immediately seeded at a density of 8,000 cells/well of a 384-well plate onto 8-week old neuron-astrocyte co-culture in Microglia media (BrainPhys™ neuronal media (Stem Cell Technologies) supplemented with 1× B27 with vitamin A, 1×N2 Plus Media Supplement (R&D Systems), 20 ng/mL BDNF, 20 ng/mL GDNF, 1 mM creatine, 200 nM L-ascorbic acid, 1 μg/mL mouse laminin, 0.5 mM GlutaMAX™ (Thermofisher), 0.5× penicillin-streptomycin, 1× normocin, 5 ng/mL TGF-β, 100 ng/mL human IL-34, 1.5 μg/mL cholesterol, 1 ng/mL gondoic acid, 100 ng/mL oleic acid, 460 μM thioglycerol, 1× insulin-transferrin-selenium, 25 ng/mL rhM-CSF, 5.4 μg/mL human insulin solution).
(§2) In double (neuron, astrocyte) and triple (neuron, astrocyte, microglia) cultures, each small molecule listed in Table 1 was tested in the AD model paradigm at up to four concentrations. Molecules that characterized ≥30% rescue in any of the four measurements of dendrites area (MAP2), synapses count (synapsin 1/2), or cell count (CUX2), or axon area (Beta III Tubulin; “BT3”)) were classified as hits (FIGS. 11A-11D, Table 2, and Table 3).

[2] = test system: human iPSC neurons and astrocytes treated with 5 μM sAβ42s; experiment: Focused small molecule screen, double culture (neuron, astrocyte), rescue from sAβ42s toxicity, high content imaging; format: cell-based; settings: double culture, 5 μM sAβ42s; for percent rescue from sAβ42s toxicity at 25 µM / percent rescue from sAβ42s toxicity at 50 µM / percent rescue from sAβ42s toxicity at 6.25 µM / percent rescue from sAβ42s toxicity at 12.5 µM: Homo sapiens, iPSC
Method: as §1
Neurons from both NSC lines were evaluated by immunofluorescence staining. Briefly, cells were fixed with 4% PFA and 4% sucrose at room temperature for 20 minutes using Bravo automation. Fixed cells were then washed 2 times with PBS using Biotek 406 microplate washer (Beckman Coulter), followed by permeabilization and blocking by incubation with a solution containing 1×PBS, 0.1% Triton X-100, 2% donkey serum, and 1% BSA at room temperature for 30 minutes. Blocking solution was removed and cells were incubated with primary antibodies in blocking solution overnight at 4° C. After washing 6 times with PBS on Biotek 406 cell plate washer (Beckman Coulter), cells were then incubated with fluorophore-conjugated secondary antibodies for 1 hour at room temperature in the dark to avoid photobleaching. Cells were then washed 6 more times in with PBS before imaging. Fluorescent images were captured using IN Cell 6000 confocal microscope (GE Healthcare Life Sciences). The image analysis was performed with IN Cell 6000 analysis software.
Prior to experimentation, media volume in wells containing neurons was equalized with liquid handling automation (Bravo) in order to ensure precise control of concentrations. All Aβ42 oligomers, anti-Aβ, small molecules, inflammatory cytokines were prepared at 10× concentration and added to Neuronal Culture Media at an appropriate volume. For the repeated dosing experiments, the media were refreshed 50% at each dosing first, before adding Aβ42 oligomers, and/or anti-Aβ antibody at the specified final concentration.
as §2

[3] = 50.00 μM compound, read-out: % B3T rescue
[4] = 50.00 μM compound, read-out: % MAP2 rescue
[5] = 50.00 μM compound, read-out: % Synapse rescue
[6] = 25 μM compound, read-out: % B3T rescue
[7] = 25 μM compound, read-out: % Cux2 rescue
[8] = 25 μM compound, read-out: % MAP2 rescue
[9] = 25 μM compound, read-out: % Synapse rescue
[10] = 50 μM compound, read-out: % B3T rescue
[11] = 50 μM compound, read-out: % Cux2 rescue
[12] = 50 μM compound, read-out: % MAP2 rescue
[13] = 50 μM compound, read-out: % Synapse rescue

O=C1Nc2ccc3ncsc3c2/C1=C/Nc1ccc(S(=O)(=O)Nc2ccccn2)cc1 [GW8510] was tested, and the “% B3T rescue” value ([1]; 0.78 μM compound) was 45%, the “% MAP2 rescue” value ([1]; 0.78 μM compound) was −4% and the “% Synapse rescue” value ([1]; 0.78 μM compound) was 8%. For the same compound, the “% B3T rescue” value ([1]; 3.13 μM compound) was 70%, the “% MAP2 rescue” value ([1]; 3.13 μM compound) was 15% and the “% Synapse rescue” value ([1]; 3.13 μM compound) was 25%. For the same compound, the “% B3T rescue” value ([1]; 12.50 μM compound) was 68%, the “% MAP2 rescue” value ([1]; 12.50 μM compound) was 28% and the “% Synapse rescue” value ([1]; 12.50 μM compound) was 32%. The “% B3T rescue” value ([1]; 50.00 μM compound) was 63%, the “% MAP2 rescue” value ([1]; 50.00 μM compound) was −8% and the “% Synapse rescue” value ([1]; 50.00 μM compound) was −15%. The “% B3T rescue” value ([2]; 6.25 μM compound) was 32%, the “% Cux2 rescue” value ([2]; 6.25 μM compound) was −1% and the “% MAP2 rescue” value ([2]; 6.25 μM compound) was 48%. The “% Synapse rescue” value ([2]; 6.25 μM compound) was 52%, the “% B3T rescue” value ([2]; 12.5 μM compound) was 20% and the “% Cux2 rescue” value ([2]; 12.5 μM compound) was 16%. The “% MAP2 rescue” value ([2]; 12.5 μM compound) was 37%, the “% Synapse rescue” value ([2]; 12.5 μM compound) was 38% and the “% B3T rescue” value ([2]; 25 μM compound) was 31%. For the same compound, the “% Cux2 rescue” value ([2]; 25 μM compound) was −18%, the “% MAP2 rescue” value ([2]; 25 μM compound) was 37% and the “% Synapse rescue” value ([2]; 25 μM compound) was 38%. For the same compound, the “% B3T rescue” value ([2]; 50 μM compound) was 47%, the “% Cux2 rescue” value ([2]; 50 μM compound) was −22% and the “% MAP2 rescue” value ([2]; 50 μM compound) was 52%. The “% Synapse rescue” value ([2]; 50 μM compound) was 49%.
O=c1cc(-c2ccc(O)c(O)c2)oc2cc(O)cc(O)c12 [Luteolin] showed a percent rescue from sAβ42s toxicity at 50 µM [1, 3] of 91%, a percent rescue from sAβ42s toxicity at 50 µM [1, 4] of 73% and a percent rescue from sAβ42s toxicity at 50 µM [1, 5] of 75%. For the same compound, the percent rescue from sAβ42s toxicity at 25 µM [2, 6] was 29%, the percent rescue from sAβ42s toxicity at 25 µM [2, 7] was 12% and the percent rescue from sAβ42s toxicity at 25 µM [2, 8] was 26%. The percent rescue from sAβ42s toxicity at 25 µM [2, 9] was 13%, the percent rescue from sAβ42s toxicity at 50 µM [2, 10] was 66% and the percent rescue from sAβ42s toxicity at 50 µM [2, 11] was 19%. The percent rescue from sAβ42s toxicity at 50 µM [2, 12] was 55% and the percent rescue from sAβ42s toxicity at 50 µM [2, 13] was 37%.
In the case of CC(C)C[C@@H](C=O)NC(=O)[C@H](CC(C)C)NC(=O)[C@H](CC(C)C)NC(=O)OCc1ccccc1 [MG-132] (Cbz-Leu-Leu-Leu-aldehyde), the percent rescue from sAβ42s toxicity at 12.5 µM ([1]; 12.50 μM compound, read-out: % B3T rescue) is reported as 35%, the percent rescue from sAβ42s toxicity at 12.5 µM ([1]; 12.50 μM compound, read-out: % MAP2 rescue) is reported as 18% and the percent rescue from sAβ42s toxicity at 12.5 µM ([1]; 12.50 μM compound, read-out: % Synapse rescue) is reported as -7%. For the same compound, the percent rescue from sAβ42s toxicity at 50 µM [1, 3] was 46%, the percent rescue from sAβ42s toxicity at 50 µM [1, 4] was 25% and the percent rescue from sAβ42s toxicity at 50 µM [1, 5] was -11%. For the same compound, the percent rescue from sAβ42s toxicity at 6.25 µM ([2]; 6.25 μM compound, read-out: % B3T rescue) was -3%, the percent rescue from sAβ42s toxicity at 6.25 µM ([2]; 6.25 μM compound, read-out: % Cux2 rescue) was 80% and the percent rescue from sAβ42s toxicity at 6.25 µM ([2]; 6.25 μM compound, read-out: % MAP2 rescue) was 18%. It also gave a percent rescue from sAβ42s toxicity at 6.25 µM ([2]; 6.25 μM compound, read-out: % Synapse rescue) of -6%, a percent rescue from sAβ42s toxicity at 12.5 µM ([2]; 12.5 μM compound, read-out: % B3T rescue) of 7% and a percent rescue from sAβ42s toxicity at 12.5 µM ([2]; 12.5 μM compound, read-out: % Cux2 rescue) of 87%. It also gave a percent rescue from sAβ42s toxicity at 12.5 µM ([2]; 12.5 μM compound, read-out: % MAP2 rescue) of 24%, a percent rescue from sAβ42s toxicity at 12.5 µM ([2]; 12.5 μM compound, read-out: % Synapse rescue) of 4% and a percent rescue from sAβ42s toxicity at 25 µM [2, 6] of 30%. The percent rescue from sAβ42s toxicity at 25 µM [2, 7] was 91%, the percent rescue from sAβ42s toxicity at 25 µM [2, 8] was 26% and the percent rescue from sAβ42s toxicity at 25 µM [2, 9] was 8%. The percent rescue from sAβ42s toxicity at 50 µM [2, 10] was 57%, the percent rescue from sAβ42s toxicity at 50 µM [2, 11] was 90% and the percent rescue from sAβ42s toxicity at 50 µM [2, 12] was 25%. For the same compound, the percent rescue from sAβ42s toxicity at 50 µM [2, 13] was 4%.
